Experimental data: PMC9945734 (BMC Medicine, 2023)

Test system: PC-3-KQ and PC-3-KR cells
Assay: RNA-sequencing and differential gene expression
Format: cell-based, human

SMILES: CC(=O)Oc1ccccc1C(=O)Nc1ncc([N+](=O)[O-])s1 [Nitazoxanide]
- SERPINA5 Change (KQ-Control vs KQ-NTZ) (RNA-Seq, PC-3-KQ cells): DOWN
- SERPINA5 logFC (KQ-Control vs KQ-NTZ) (RNA-Seq, PC-3-KQ cells): -0.8689
- SERPINB3 Change (KQ-Control vs KQ-NTZ) (RNA-Seq, PC-3-KQ cells): DOWN
- SERPINB3 logFC (KQ-Control vs KQ-NTZ) (RNA-Seq, PC-3-KQ cells): -1.6793
- SERPINB4 Change (KQ-Control vs KQ-NTZ) (RNA-Seq, PC-3-KQ cells): DOWN
- SERPIND1 Change (KQ-Control vs KQ-NTZ) (RNA-Seq, PC-3-KQ cells): DOWN
- SERPIND1 logFC (KQ-Control vs KQ-NTZ) (RNA-Seq, PC-3-KQ cells): -1.1652
- SGK1 Change (KQ-Control vs KQ-NTZ) (RNA-Seq, PC-3-KQ cells): DOWN
- SGK1 logFC (KQ-Control vs KQ-NTZ) (RNA-Seq, PC-3-KQ cells): -0.7813
- SHISA3 Change (KQ-Control vs KQ-NTZ) (RNA-Seq, PC-3-KQ cells): DOWN
- SHISA3 logFC (KQ-Control vs KQ-NTZ) (RNA-Seq, PC-3-KQ cells): -0.8421
- SLC22A4 Change (KQ-Control vs KQ-NTZ) (RNA-Seq, PC-3-KQ cells): DOWN
- SLC22A4 logFC (KQ-Control vs KQ-NTZ) (RNA-Seq, PC-3-KQ cells): -0.8073
- SLC26A9 Change (KQ-Control vs KQ-NTZ) (RNA-Seq, PC-3-KQ cells): DOWN
- SLC26A9 logFC (KQ-Control vs KQ-NTZ) (RNA-Seq, PC-3-KQ cells): -0.6605
- SLC45A2 Change (KQ-Control vs KQ-NTZ) (RNA-Seq, PC-3-KQ cells): DOWN
- SLC45A2 logFC (KQ-Control vs KQ-NTZ) (RNA-Seq, PC-3-KQ cells): -0.7358
- SLITRK5 Change (KQ-Control vs KQ-NTZ) (RNA-Seq, PC-3-KQ cells): DOWN
- SLITRK5 logFC (KQ-Control vs KQ-NTZ) (RNA-Seq, PC-3-KQ cells): -0.708
- SVEP1 Change (KQ-Control vs KQ-NTZ) (RNA-Seq, PC-3-KQ cells): DOWN
- SVEP1 logFC (KQ-Control vs KQ-NTZ) (RNA-Seq, PC-3-KQ cells): -1.4829
- TCN1 Change (KQ-Control vs KQ-NTZ) (RNA-Seq, PC-3-KQ cells): DOWN
- TCN1 logFC (KQ-Control vs KQ-NTZ) (RNA-Seq, PC-3-KQ cells): -0.7528
- TENM4 Change (KQ-Control vs KQ-NTZ) (RNA-Seq, PC-3-KQ cells): DOWN
- TENM4 logFC (KQ-Control vs KQ-NTZ) (RNA-Seq, PC-3-KQ cells): -0.7441
- TIMM8A Change (KQ-Control vs KQ-NTZ) (RNA-Seq, PC-3-KQ cells): DOWN
- TNF Change (KQ-Control vs KQ-NTZ) (RNA-Seq, PC-3-KQ cells): DOWN
- TNF logFC (KQ-Control vs KQ-NTZ) (RNA-Seq, PC-3-KQ cells): -0.6786
- TNFRSF6B Change (KQ-Control vs KQ-NTZ) (RNA-Seq, PC-3-KQ cells): DOWN
- TNFRSF6B logFC (KQ-Control vs KQ-NTZ) (RNA-Seq, PC-3-KQ cells): -0.5861
- TNFRSF11B Change (KQ-Control vs KQ-NTZ) (RNA-Seq, PC-3-KQ cells): DOWN
- TNFRSF11B logFC (KQ-Control vs KQ-NTZ) (RNA-Seq, PC-3-KQ cells): -2.1243
- TSPAN18 Change (KQ-Control vs KQ-NTZ) (RNA-Seq, PC-3-KQ cells): DOWN
- TSPAN18 logFC (KQ-Control vs KQ-NTZ) (RNA-Seq, PC-3-KQ cells): -0.7268
- TTC30A Change (KQ-Control vs KQ-NTZ) (RNA-Seq, PC-3-KQ cells): DOWN
- TTC30A logFC (KQ-Control vs KQ-NTZ) (RNA-Seq, PC-3-KQ cells): -0.7519
- TTC30B Change (KQ-Control vs KQ-NTZ) (RNA-Seq, PC-3-KQ cells): DOWN
- TTC30B logFC (KQ-Control vs KQ-NTZ) (RNA-Seq, PC-3-KQ cells): -0.6538
- XKRX Change (KQ-Control vs KQ-NTZ) (RNA-Seq, PC-3-KQ cells): DOWN
- XKRX logFC (KQ-Control vs KQ-NTZ) (RNA-Seq, PC-3-KQ cells): -0.6274
- ZFPM2 Change (KQ-Control vs KQ-NTZ) (RNA-Seq, PC-3-KQ cells): DOWN
- ZFPM2 logFC (KQ-Control vs KQ-NTZ) (RNA-Seq, PC-3-KQ cells): -1.4661
- ZNF28 Change (KQ-Control vs KQ-NTZ) (RNA-Seq, PC-3-KQ cells): DOWN
- ZNF28 logFC (KQ-Control vs KQ-NTZ) (RNA-Seq, PC-3-KQ cells): -0.6433
- ZNF302 Change (KQ-Control vs KQ-NTZ) (RNA-Seq, PC-3-KQ cells): DOWN
- ZNF302 logFC (KQ-Control vs KQ-NTZ) (RNA-Seq, PC-3-KQ cells): -1.2333
- logFC, gene ABCB11 (RNA-Seq, PC-3-KQ cells, KQ-Control vs KQ-NTZ, gene ABCB11): -0.7396
- logFC, gene C5orf63 (RNA-Seq, PC-3-KQ cells, KQ-Control vs KQ-NTZ, gene C5orf63): -1.615
- logFC, gene C11orf65 (RNA-Seq, PC-3-KQ cells, KQ-Control vs KQ-NTZ, gene C11orf65): -0.9307
- logFC, gene CELF3 (RNA-Seq, PC-3-KQ cells, KQ-Control vs KQ-NTZ, gene CELF3): -0.8233
- logFC, gene LOC107985532 (RNA-Seq, PC-3-KQ cells, KQ-Control vs KQ-NTZ, gene LOC107985532): -0.9452
- logFC, gene MROH8 (RNA-Seq, PC-3-KQ cells, KQ-Control vs KQ-NTZ, gene MROH8): -0.9801
- logFC, gene RLN1 (RNA-Seq, PC-3-KQ cells, KQ-Control vs KQ-NTZ, gene RLN1): -1.0231
- logFC, gene RP1L1 (RNA-Seq, PC-3-KQ cells, KQ-Control vs KQ-NTZ, gene RP1L1): -0.9422
- logFC, gene SAXO2 (RNA-Seq, PC-3-KQ cells, KQ-Control vs KQ-NTZ, gene SAXO2): -0.8856
- logFC, gene TNFAIP8L2-SCNM1 (RNA-Seq, PC-3-KQ cells, KQ-Control vs KQ-NTZ, gene TNFAIP8L2-SCNM1): -0.9389
- logFC, gene ZNF154 (RNA-Seq, PC-3-KQ cells, KQ-Control vs KQ-NTZ, gene ZNF154): -0.8416
- logFC, gene ZNF596 (RNA-Seq, PC-3-KQ cells, KQ-Control vs KQ-NTZ, gene ZNF596): -0.9026
- Change (KQ-Control vs KQ-NTZ), gene ABCB11 (RNA-Seq, PC-3-KQ cells, gene ABCB11): DOWN
- Change (KQ-Control vs KQ-NTZ), gene C5orf63 (RNA-Seq, PC-3-KQ cells, gene C5orf63): DOWN
- Change (KQ-Control vs KQ-NTZ), gene C11orf65 (RNA-Seq, PC-3-KQ cells, gene C11orf65): DOWN
- Change (KQ-Control vs KQ-NTZ), gene CELF3 (RNA-Seq, PC-3-KQ cells, gene CELF3): DOWN
- Change (KQ-Control vs KQ-NTZ), gene LOC107985532 (RNA-Seq, PC-3-KQ cells, gene LOC107985532): DOWN
- Change (KQ-Control vs KQ-NTZ), gene MROH8 (RNA-Seq, PC-3-KQ cells, gene MROH8): DOWN
- Change (KQ-Control vs KQ-NTZ), gene RLN1 (RNA-Seq, PC-3-KQ cells, gene RLN1): DOWN
- Change (KQ-Control vs KQ-NTZ), gene RP1L1 (RNA-Seq, PC-3-KQ cells, gene RP1L1): DOWN
- Change (KQ-Control vs KQ-NTZ), gene SAXO2 (RNA-Seq, PC-3-KQ cells, gene SAXO2): DOWN
- Change (KQ-Control vs KQ-NTZ), gene TNFAIP8L2-SCNM1 (RNA-Seq, PC-3-KQ cells, gene TNFAIP8L2-SCNM1): DOWN
- Change (KQ-Control vs KQ-NTZ), gene ZNF154 (RNA-Seq, PC-3-KQ cells, gene ZNF154): DOWN
- Change (KQ-Control vs KQ-NTZ), gene ZNF596 (RNA-Seq, PC-3-KQ cells, gene ZNF596): DOWN
- change of NTZ treatment (gene AADACL3): down
- change of NTZ treatment (gene ABAT): up
- change of NTZ treatment (gene ADIRF): up
- logFC (gene ADIRF, KQ-Control vs KQ-NTZ): 0.6207
- logFC (gene AKR1B1, KQ-Control vs KQ-NTZ): 1.237
- change of NTZ treatment (gene AKR1C1): up
- logFC (gene AKR1C1, KQ-Control vs KQ-NTZ): 1.37
- change of NTZ treatment (gene AKR1C3): up
- change of NTZ treatment (gene ANG): up
- logFC (gene ANG, KQ-Control vs KQ-NTZ): 1.354
